Measured values reported in ChEMBL document CHEMBL1158271, “Lupane derivatives from Lophopetalum wallichii with farnesyl protein transferase inhibitory activity” (J Nat Prod, 1996).
≈ marks a conversion by molar mass, not a printed value.

Assays:
[1] = Inhibition of recombinant protein farnesyltransferase-mediated [3H]FPP transfer after 30 mins by scintillation counting
[2] = Cytotoxicity against human U373 cells; type: functional, cell-based, U-373MG ATCC; details: U373 MG
[3] = system: LNCaP; assay: Cytotoxicity against human LNCAP cells; type: functional, cell-based
[4] = system: ZR-75-1; assay: Cytotoxicity against human ZR-75-1 cells; type: functional, cell-based
[5] = system: KB; assay: Cytotoxicity against human KB cells; type: functional, cell-based
[6] = system: A-431; assay: Cytotoxicity against human A431 cells; type: functional, cell-based
[7] = Cytotoxicity against human KBVIN cells; type: functional, cell-based
[8] = system: SK-MEL-2; assay: Cytotoxicity against human SK-MEL-2 cells; type: functional, cell-based
[9] = system: Col2; assay: Cytotoxicity against human Col2 cells; type: functional, cell-based
[10] = system: HT; assay: Cytotoxicity against human HT cells; type: functional, cell-based
[11] = system: Lu1; assay: Cytotoxicity against human Lu1 cells; type: functional, cell-based
[12] = Cytotoxicity against human BC1 cells; type: functional, cell-based

SMILES | IC50 [1] | EC50 [2] | EC50 [3] | EC50 [4] | EC50 [5] | EC50 [6] | EC50 [7] | EC50 [8] | EC50 [9] | EC50 [10] | EC50 [11] | EC50 [12]
CC1(C)C(=O)CC[C@]2(C)[C@H]3CC[C@@H]4[C@H]5[C@H]6[C@@H](C[C@]5(C)CC[C@@]4(C)[C@]3(C)CC[C@@H]12)OC(=O)[C@]61CO1 [20-EPI-OCHRACEOLIDE B] | > 100 µg/mL | – | – | – | – | – | – | – | – | – | – | –
C=C(C)[C@@H]1CC[C@]2(C)CC[C@]3(C)[C@H](CC[C@@H]4[C@@]5(C)CC[C@H](O)C(C)(C)[C@@H]5CC[C@]43C)[C@@H]12 [LUPEOL] | 65 µg/mL | – | – | – | – | – | – | – | – | – | – | –
C=C(C)[C@@H]1CC[C@]2(CO)CC[C@]3(C)[C@H](CC[C@@H]4[C@@]5(C)CC[C@H](O)C(C)(C)[C@@H]5CC[C@]43C)[C@@H]12 [BETULIN] | 1 µg/mL | – | – | – | – | – | – | – | – | – | – | –

Continued, in another order:

IC50 [1] | SMILES | EC50 [2] | EC50 [3] | EC50 [4] | EC50 [5] | EC50 [6] | EC50 [7] | EC50 [8] | EC50 [9] | EC50 [10] | EC50 [11] | EC50 [12]
> 100 µg/mL | C=C1C(=O)O[C@@H]2C[C@]3(C)CC[C@]4(C)[C@H](CC[C@@H]5[C@@]6(C)CC[C@H](O)C(C)(C)[C@@H]6CC[C@]54C)[C@H]3[C@H]12 [DIHYDRO OCHRACEOLIDE A] | 9.1 µg/mL (≈ 20 µM) | 14.5 µg/mL (≈ 31.9 µM) | 3 µg/mL (≈ 6.6 µM) | > 20 µg/mL | 6.8 µg/mL (≈ 15 µM) | > 20 µg/mL | > 20 µg/mL | 12.1 µg/mL (≈ 26.6 µM) | 9.6 µg/mL (≈ 21.1 µM) | 8.9 µg/mL (≈ 19.6 µM) | 10.2 µg/mL (≈ 22.4 µM)
> 100 µg/mL | C=C1C(=O)O[C@@H]2C[C@]3(C)CC[C@]4(C)[C@H](CC[C@@H]5[C@@]6(C)CCC(=O)C(C)(C)[C@@H]6CC[C@]54C)[C@H]3[C@H]12 [OCHRACEOLIDE A] | 6.7 µg/mL (≈ 14.8 µM) | 13.4 µg/mL (≈ 29.6 µM) | 4.5 µg/mL (≈ 9.94 µM) | > 20 µg/mL | > 20 µg/mL | 17.2 µg/mL (≈ 38 µM) | > 20 µg/mL | > 20 µg/mL | 8.6 µg/mL (≈ 19 µM) | 16.1 µg/mL (≈ 35.6 µM) | 7.9 µg/mL (≈ 17.5 µM)
